From US8022225B2, “Triazole derivative” (Taisho Pharmaceutical Co., Ltd, priority 2004, dated 2011)

Columns and labels:
human Edg-1(S1P1) [1] = molecular target: T1, human Edg-1(S1P1) (Homo sapiens, UniProt P21453); assay: Cell system binding test: inhibition of [3H]-S1P binding to Edg-1(S1P1) gene transferred HEK-293 cells; conditions: 10 μM compound, [3H]-S1P 10 nM, read-out: Cell system binding test % inhibition (10 μM)
T1 construct: expressed in transfected cells; host or cells: HEK-293

human Edg-1(S1P1) [2] = molecular target: T1, human Edg-1(S1P1); assay: Membrane system binding test: inhibition of [33P]-S1P binding to the membrane fraction of Edg-1(S1P1) gene transferred HEK-293 cells; conditions: 10 μM compound; [33P]-S1P 0.1 nM; membrane fraction of Edg-1(S1P1) gene transferred HEK-293 cells; read-out: Membrane system binding test % inhibition (10 μM)
In short: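 Membranes from HEK-293 cells transfected with Edg-1(S1P1) incubated 1 h at 30 °C with 0.1 nM [^33P]-S1P and compound at 10^−5 M (0.1% DMSO), pH 7.4 buffer with fatty acid-free BSA. Filter-bound radioactivity counted; inhibition rate calculated against no-compound binding, with untransfected-cell background subtracted.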

T1 sequence (P21453 whole entry): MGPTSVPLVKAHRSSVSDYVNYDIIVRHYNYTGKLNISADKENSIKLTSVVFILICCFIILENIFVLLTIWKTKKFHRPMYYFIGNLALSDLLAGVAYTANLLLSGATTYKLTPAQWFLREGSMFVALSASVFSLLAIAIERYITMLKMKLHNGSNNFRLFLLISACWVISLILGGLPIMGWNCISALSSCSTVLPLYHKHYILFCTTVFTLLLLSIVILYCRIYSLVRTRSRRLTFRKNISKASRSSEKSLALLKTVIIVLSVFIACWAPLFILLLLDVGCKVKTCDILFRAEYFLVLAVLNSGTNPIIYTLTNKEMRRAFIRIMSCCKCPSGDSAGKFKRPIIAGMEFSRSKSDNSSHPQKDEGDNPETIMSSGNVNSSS

Compound | inhibition at 10 µM (human Edg-1(S1P1) [1]) | inhibition at 10 µM (human Edg-1(S1P1) [2])
CCn1c(OC)nnc1[C@@H](C)NS(=O)(=O)c1cc(F)c(F)cc1F [Compound 302] | 98.7% | 57.7%
CCn1c(OC)nnc1[C@@H](C)NS(=O)(=O)c1cc(Br)ccc1Br [Compound 303] | 97.7% | 56.1%
CCn1c(OC)nnc1[C@@H](C)NS(=O)(=O)c1ccc(Br)cc1Br [Compound 306] | 94.5% | 62.8%
CCn1c(OC)nnc1[C@@H](C)NS(=O)(=O)c1ccc(F)c(C#N)c1 [Compound 307] | 96.2% | 68%
CCn1c(OC)nnc1[C@@H](C)NS(=O)(=O)c1cc(C)cc(C)c1 [Compound 308] | 95.5% | 68.1%
CCn1c(OC)nnc1[C@@H](C)NS(=O)(=O)c1ccc(OC(F)F)cc1 [Compound 309] | 93.2% | 46.5%
CCn1c(OC)nnc1[C@@H](C)NS(=O)(=O)c1cccc(OC(F)F)c1 [Compound 310] | 98.5% | 78.8%
CCn1c(OC)nnc1[C@@H](C)NS(=O)(=O)c1cc(F)cc(F)c1 [Compound 311] | 97.6% | 52.4%
CCn1c(OC)nnc1[C@@H](C)NS(=O)(=O)c1ccc(Cl)cc1F [Compound 312] | 95.9% | 50.7%
CCn1c(OC)nnc1[C@@H](C)NS(=O)(=O)c1cc(F)c(F)c(F)c1 [Compound 313] | 100% | 93.2%
CCn1c(OC)nnc1[C@@H](C)NS(=O)(=O)c1ccc(Br)c(C)c1 [Compound 314] | 102% | 100%
CCn1c(OC)nnc1[C@@H](C)NS(=O)(=O)c1ccc(C)c(F)c1 [Compound 315] | 100% | 85%
CCn1c(OC)nnc1[C@@H](C)NS(=O)(=O)c1ccc(Br)c(F)c1 [Compound 317] | 97.2% | 95.8%
CCn1c(OC)nnc1[C@@H](C)NS(=O)(=O)c1ccc(C)c(C)c1 [Compound 319] | 93.4% | 89.9%
CCn1c(OC)nnc1[C@@H](C)NS(=O)(=O)c1cc(C)ccc1F [Compound 320] | 93.5% | 47.9%
CCn1c(OC)nnc1[C@@H](C)NS(=O)(=O)c1ccc(F)c(C(F)(F)F)c1 [Compound 321] | 100% | 99.7%
CCn1c(OC)nnc1[C@@H](C)NS(=O)(=O)c1cccc(Cl)c1F [Compound 322] | 95.9% | 43.5%
CCn1c(OC)nnc1[C@@H](C)NS(=O)(=O)c1ccc2c(c1)CCO2 [Compound 337] | 102% | 61.3%
CCn1c(OC)nnc1[C@@H](C)NS(=O)(=O)c1ccc2c(c1)OCCO2 [Compound 338] | 103% | 69.4%
CCn1c(OC)nnc1[C@@H](C)NS(=O)(=O)c1ccc2nsnc2c1 [Compound 341] | 99.4% | 99.4%
CCn1c(OC)nnc1[C@@H](C)NS(=O)(=O)c1ccc2c(c1)OCCCO2 [Compound 343] | 98.9% | 41.4%

Compound | inhibition at 10 µM (human Edg-1(S1P1) [1]) | inhibition at 10 µM (human Edg-1(S1P1) [2])
CCn1c(OC)nnc1[C@@H](C)NS(=O)(=O)c1ccc2c(c1)OCCN2C [Compound 344] | 102% | 65.8%
CCn1c(OC)nnc1[C@@H](C)NS(=O)(=O)c1cccc(C(C)=O)c1 [Compound 355] | 101% | 62.8%
CCn1c(OC)nnc1[C@@H](C)NS(=O)(=O)c1cccc2cnccc12 [Compound 365] | 81.7% | 41.8%
CCn1c(OC)nnc1[C@@H](C)NS(=O)(=O)c1cc(C)sc1C [Compound 367] | 97% | 41.8%
CCn1c(OC)nnc1[C@@H](C)NS(=O)(=O)c1csc2ccccc12 [Compound 368] | 102% | 85.1%
CCn1c(OC)nnc1[C@@H](C)NS(=O)(=O)c1cc2ccccc2s1 [Compound 369] | 105% | 102%
CCn1c(OC)nnc1[C@@H](C)NS(=O)(=O)c1cc(Br)cc(C(F)(F)F)c1 [Compound 371] | 102% | 61.2%
CCn1c(OC)nnc1[C@@H](C)NS(=O)(=O)c1ccc(Br)c(C(F)(F)F)c1 [Compound 372] | 105% | 94.3%
CCn1c(OCCOC)nnc1[C@@H](C)NS(=O)(=O)c1ccc(Cl)cc1 [Compound 375] | 92.6% | 54.3%
CCn1c(OCC(C)(C)C)nnc1[C@@H](C)NS(=O)(=O)c1ccc(Cl)cc1 [Compound 377] | 97.9% | 90.3%
CCn1c(OCC2CCCCC2)nnc1[C@@H](C)NS(=O)(=O)c1ccc(Cl)cc1 [Compound 378] | 103% | 87.2%
CCn1c(OC(C)C)nnc1[C@@H](C)NS(=O)(=O)c1ccc(Cl)cc1 [Compound 379] | 99.7% | 93.4%
CCn1c(OCCCCCO)nnc1[C@@H](C)NS(=O)(=O)c1ccc(Cl)cc1 [Compound 380] | 105% | 85.2%
CCn1c(OCc2ccccc2)nnc1[C@@H](C)NS(=O)(=O)c1ccc(Cl)cc1 [Compound 381] | 97.1% | 94.9%
CCn1c(OC2CCCC2)nnc1[C@@H](C)NS(=O)(=O)c1ccc(Cl)cc1 [Compound 382] | 97.8% | 99.6%
CCN(CC)C(=O)COc1nnc([C@@H](C)NS(=O)(=O)c2ccc(Cl)cc2)n1CC [Compound 383] | 82.2% | 66%
C=CCCCOc1nnc([C@@H](C)NS(=O)(=O)c2ccc(Cl)cc2)n1CC [Compound 384] | 104% | 93.5%
CCn1c(OCC2CCC2)nnc1[C@@H](C)NS(=O)(=O)c1ccc(Cl)cc1 [Compound 385] | 99.9% | 90.1%
CCCOc1nnc([C@@H](Cc2ccccc2)NS(=O)(=O)c2ccc(Cl)cc2)n1CC [Compound 386] | 103% | 99.5%
CCn1c(OC2CCC2)nnc1[C@@H](C)NS(=O)(=O)c1ccc(Cl)cc1 [Compound 387] | 102% | 99.3%
CCn1c(OC2CCCCC2)nnc1[C@@H](C)NS(=O)(=O)c1ccc(Cl)cc1 [Compound 388] | 104% | 103%

Compound | inhibition at 10 µM (human Edg-1(S1P1) [1]) | inhibition at 10 µM (human Edg-1(S1P1) [2])
CCn1c(OCC(C)C)nnc1[C@@H](C)NS(=O)(=O)c1ccc(Cl)cc1 [Compound 389] | 96.3% | 89.6%
CCn1c(OC)nnc1[C@@H](Cc1ccccc1)NS(=O)(=O)c1ccc(Cl)cc1 [Compound 390] | 101% | 99.8%
CCn1c(OCCC(C)C)nnc1[C@@H](C)NS(=O)(=O)c1ccc(Cl)cc1 [Compound 391] | 92.5% | 78.3%
CCn1c(OC2CCOC2)nnc1[C@@H](C)NS(=O)(=O)c1ccc(Cl)cc1 (some centres unmarked) [Compound 392] | 95.6% | 85.1%
CCn1c(OCCN2CCOCC2)nnc1[C@@H](C)NS(=O)(=O)c1ccc(Cl)cc1 [Compound 393] | 82.4% | 65.3%
CCn1c(OCCCN2CCOCC2)nnc1[C@@H](C)NS(=O)(=O)c1ccc(Cl)cc1 [Compound 394] | 82.9% | 76.9%
CCn1c(OCC(F)(F)F)nnc1[C@@H](C)NS(=O)(=O)c1ccc(Cl)cc1 [Compound 395] | 91.9% | 83.7%
CCCCOc1nnc([C@@H](C)NS(=O)(=O)c2ccc(Cl)cc2)n1CC [Compound 396] | 87.9% | 83.3%
CCn1c(OCCCC(F)(F)F)nnc1[C@@H](C)NS(=O)(=O)c1ccc(Cl)cc1 [Compound 397] | 88.6% | 92%
CCn1c(OCCCOC)nnc1[C@@H](C)NS(=O)(=O)c1ccc(Cl)cc1 [Compound 398] | 85.8% | 93.5%
CCOc1nnc([C@@H](C)NS(=O)(=O)c2ccc(F)c(C(F)(F)F)c2)n1CC [Compound 399] | 88.5% | 90.9%
CCOc1nnc([C@@H](C)NS(=O)(=O)c2ccc(Br)s2)n1CC [Compound 400] | 92.8% | 84.8%
CCOc1nnc([C@@H](C)NS(=O)(=O)c2ccc(Cl)c(Cl)c2)n1CC [Compound 401] | 92.8% | 87.2%
CCOc1nnc([C@@H](C)NS(=O)(=O)c2ccc3ccccc3c2)n1CC [Compound 402] | 90.4% | 95.8%
CCOc1nnc([C@@H](C)NS(=O)(=O)c2ccc(F)c(F)c2)n1CC [Compound 403] | 86.1% | 85.9%
CCOc1nnc([C@@H](C)NS(=O)(=O)c2ccc(C)c(Cl)c2)n1CC [Compound 404] | 91.2% | 90%
CCOc1nnc([C@@H](C)NS(=O)(=O)c2ccc(Br)c(F)c2)n1CC [Compound 405] | 90.4% | 88.2%
CCOc1nnc([C@@H](C)NS(=O)(=O)c2cc3ccccc3s2)n1CC [Compound 406] | 90.1% | 92.5%
CCOc1nnc([C@@H](C)NS(=O)(=O)c2ccc(F)c(Cl)c2)n1CC [Compound 407] | 94.7% | 81.9%
